# Target: T1, Epidermal growth factor receptor (Homo sapiens, UniProt P00533)
# Experiment: Inhibition of Epidermal growth factor receptor from A431 cells
# T1 sequence (P00533 whole entry): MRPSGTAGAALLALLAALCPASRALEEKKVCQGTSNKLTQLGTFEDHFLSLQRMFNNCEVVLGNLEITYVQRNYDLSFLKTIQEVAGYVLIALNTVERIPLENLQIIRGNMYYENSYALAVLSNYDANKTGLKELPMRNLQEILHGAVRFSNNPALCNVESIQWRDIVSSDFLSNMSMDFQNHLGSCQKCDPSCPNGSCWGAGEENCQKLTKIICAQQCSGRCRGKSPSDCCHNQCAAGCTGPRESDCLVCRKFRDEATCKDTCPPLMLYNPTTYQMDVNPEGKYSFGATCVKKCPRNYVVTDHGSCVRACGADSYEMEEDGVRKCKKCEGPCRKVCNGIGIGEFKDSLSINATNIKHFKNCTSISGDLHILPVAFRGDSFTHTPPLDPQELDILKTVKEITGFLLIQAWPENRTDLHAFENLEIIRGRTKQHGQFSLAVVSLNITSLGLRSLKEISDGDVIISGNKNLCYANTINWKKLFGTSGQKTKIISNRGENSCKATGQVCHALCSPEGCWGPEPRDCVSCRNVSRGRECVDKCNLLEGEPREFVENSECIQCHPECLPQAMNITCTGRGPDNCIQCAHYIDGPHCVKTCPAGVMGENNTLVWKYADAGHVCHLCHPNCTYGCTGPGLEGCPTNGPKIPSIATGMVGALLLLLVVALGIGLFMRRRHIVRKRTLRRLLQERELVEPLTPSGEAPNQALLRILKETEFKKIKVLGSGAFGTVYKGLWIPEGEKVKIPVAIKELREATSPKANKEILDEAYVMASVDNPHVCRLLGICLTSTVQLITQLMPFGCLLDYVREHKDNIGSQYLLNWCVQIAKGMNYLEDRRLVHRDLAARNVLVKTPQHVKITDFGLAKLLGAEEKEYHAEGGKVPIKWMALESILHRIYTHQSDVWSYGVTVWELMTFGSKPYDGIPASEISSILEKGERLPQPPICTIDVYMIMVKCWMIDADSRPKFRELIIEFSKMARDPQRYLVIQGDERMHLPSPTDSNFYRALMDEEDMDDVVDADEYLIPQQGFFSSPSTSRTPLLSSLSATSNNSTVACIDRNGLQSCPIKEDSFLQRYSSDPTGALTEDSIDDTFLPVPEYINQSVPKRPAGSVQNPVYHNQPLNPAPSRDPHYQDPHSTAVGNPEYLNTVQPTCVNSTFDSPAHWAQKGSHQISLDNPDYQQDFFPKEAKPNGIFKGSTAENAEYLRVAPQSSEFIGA
row,Structure (SMILES),IC50 [nM]
1,O=[N+]([O-])c1cccc2ncnc(Nc3cccc(Br)c3)c12,355
2,Oc1cc2ncnc(Nc3cccc(Br)c3)c2cc1O,0.17

# The remaining lines, values ahead:
row,IC50 [nM],Structure (SMILES)
1,320,c1ccc(CNc2ncnc3ccccc23)cc1
2,> 10000,O=[N+]([O-])c1cccc2c(NCc3ccccc3)ncnc12
3,> 10000,Nc1cccc2c(NCc3ccccc3)ncnc12
4,974,COc1cccc2c(Nc3cccc(Br)c3)ncnc12

# Target: T1, Epidermal growth factor receptor
# Experiment: Evaluation of inhibitory activity against phospholipase C-gamma1 phosphorylation by Epidermal growth factor receptor enzyme isolated from A431 cells.
row,Structure (SMILES),IC50 [nM]
1,O=[N+]([O-])c1ccc2c(NCc3ccccc3)ncnc2c1,5900
2,Clc1ccc(CNc2ncnc3ccccc23)cc1,7000
3,Brc1cccc(Oc2ncnc3ccccc23)c1,756
4,c1ccc(CCNc2ncnc3ccccc23)cc1,4100
5,O=[N+]([O-])c1ccc2ncnc(NCc3ccccc3)c2c1,> 10000
6,O=[N+]([O-])c1cccc2c(Nc3cccc(Br)c3)ncnc12,> 10000
7,O=[N+]([O-])c1cccc2ncnc(NCc3ccccc3)c12,8000
8,Brc1cccc(Nc2nnnc3ccccc23)c1,> 1000
9,COc1cc2ncnc(NCc3ccccc3)c2cc1OC,10
10,Brc1cccc(Nc2nncc3ccccc23)c1,> 100000
11,COc1ccc2c(NCc3ccccc3)ncnc2c1,58
12,O=[N+]([O-])c1ccc2ncnc(Nc3cccc(Br)c3)c2c1,897
13,Brc1cccc(Nc2cnc3ccccc3n2)c1,> 100000
14,Nc1cccc2c(Nc3cccc(Br)c3)ncnc12,105
15,COc1cc2c(NCc3ccccc3)ncnc2cc1O,588
16,Brc1cccc(Nc2ccnc3ccccc23)c1,5500
17,COc1cccc2c(NCc3ccccc3)ncnc12,> 10000
18,Cc1cccc(Nc2ncnc3ccccc23)c1,910
19,COc1ccc2ncnc(Nc3cccc(Br)c3)c2c1,348
20,FC(F)(F)c1cccc(Nc2ncnc3ccccc23)c1,577
21,Ic1cccc(Nc2ncnc3ccccc23)c1,80

# Second part, the molecule after the results:
row,IC50 [nM],Structure (SMILES)
1,56,COc1cc2ncnc(NCc3ccccc3)c2cc1O
2,10000,COc1ccc(CNc2ncnc3ccccc23)cc1
3,> 10000,Brc1cccc(Nc2cnnc3ccccc23)c1
4,139,COc1cccc2ncnc(Nc3cccc(Br)c3)c12
5,> 10000,Nc1cccc2ncnc(NCc3ccccc3)c12
6,100000,CN(c1ccccc1)c1ncnc2ccccc12
7,0.12,Nc1cc2ncnc(Nc3cccc(Br)c3)c2cc1N
8,23,Clc1cccc(Nc2ncnc3ccccc23)c1
9,4900,COc1cccc2ncnc(NCc3ccccc3)c12
10,> 1000,Nc1ccc2c(NCc3ccccc3)ncnc2c1
11,1400,Nc1ccc2ncnc(NCc3ccccc3)c2c1
12,200,COc1ccc2ncnc(NCc3ccccc3)c2c1
13,439,Nc1cccc2ncnc(Nc3cccc(Br)c3)c12
14,> 100000,Brc1cccc(Nc2nccc3ccccc23)c1
15,10,COc1ccc2c(Nc3cccc(Br)c3)ncnc2c1
16,1000,O=[N+]([O-])c1ccc2c(Nc3cccc(Br)c3)ncnc2c1
